Results on one compound are retold here after patent publication US20220257764A1, “USE OF DIKETONE COMPOUND IN PHOTODYNAMIC THERAPY OR DIAGNOSIS” (BEIJING WHOLESOMETECH CO., LTD., priority 2019, published 2022).

Broadly, the inhibition is the drop in the measured response relative to a control, in per cent. For orientation: IC50 means the midpoint of a concentration-inhibition curve. Low values mean higher potency, high ones lower potency.

Like-named read-outs stand apart in the source and are kept apart here.

Assay [1] relates to Escherichia coli. The experiment in a line: Inhibitory effect on bacteria (colony counting), under light and in the dark. Type of assay: cell-based. Conditions: 60 mM. As to the method:
A single Escherichia coli colony was transferred from a solid Luria Bertani (LB) agar plate to 5 ml liquid LB medium and incubated at 37° C. for 12 h. Bacteria were collected by centrifugation (7000 rpm, 1 min) and washed with PBS buffer three times. The supernatant was discarded, and the remaining Escherichia coli cells were resuspended in the PBS buffer. The bacterial suspension was adjusted to make its optical density (OD600) to 1.0. The suspension was then diluted (5 times) with PBS buffer. The diluted Escherichia coli cell suspension was incubated in the dark at 37° C. for 15 min in the presence of a photosensitizer (diketone compound) solution with a concentration of 60 mM, and then irradiated for 200 s under a 15 mW/cm^2 laser light (with a wavelength of 450 nm to 480 nm and in the final light dose of about 3 J cm^2), and after the irradiation the bacterial suspension was serially diluted (10^4 times) with PBS buffer. 100 μL of the diluted bacterial Escherichia coli cell was dispersed on a solid LB agar plate and incubated at 37° C. for 12 h to 16 h, and colonies formed were counted. In the meanwhile, a treated group in the dark and an untreated group in the dark were set; the inhibition rate was determined by dividing the number of colony forming units (cfu) killed in the treated group under light or the treated group in the dark by the number of colony forming units (cfu) killed in the untreated group in the dark.

The test system of assay [2] is 4T1 cells (breast cancer cells in mice). Kind of assay: Photodynamic therapy of tumors in mice (tumor size, tumor weight, B cells in tumor tissue). Format: in vivo, BALB/C mice. Conditions: 14 days after treatment. How it is done: 1. Photodynamic therapy experiments on tumors were carried out by using BJMU-204 as a photosensitizer and BALB/C mice as experimental animals. Modeling mode: BALB/C mice were divided into 5 groups in total, 11-12 mice in each group. 4T1 cells (breast cancer cells in mice) were resuscitated and subcultured to a better cell state for tumorigenesis inoculation. BALB/C mice were locally depilated and disinfected, and tumor cells were injected into the mouse mammary fat pad in situ. Tumors were formed within 7 to 10 days. […] [table] 2. Mice in each experimental group were subjected to blood collection for serum separation and necropsy, and tumors were taken out and measured to obtain their wet weights; tumor tissues were fixed, pathological examinations were performed, and H. E. staining was used to observe the changes of tumors of the mice under an optical microscope; blood routine indicators (including white blood cell count (WBC), red blood cell count (RBC), lymphocyte count (LY), platelet count (PLT) and many other blood routine indicators) and blood biochemical indicators (including routine blood biochemical indicators) were tested and analyzed in the Laboratory of Peking University Third Hospital. 3. Tumors were taken out of mice in each experimental group, a piece of tumor tissue about 1 cm*1 cm*0.5 cm in size was cut up and placed in a 10 ml EP tube. 5 ml of pancreatin was added for digestion. 30 min later, the digestion was ended. The digestion solution and the tumor tissue were sieved through a single cell sieve to obtain a tumor tissue single-cell suspension. B220 antibody (for flow cytometry) was added to the suspension and the resulting solution was stained with a PI staining solution; 30 min later, the staining was ended and the staining solution was removed; next, re-suspending was carried out with a PBS solution for test with a flow cytometry.

In assay [3] the test system is SW480 colon cancer cells. Kind of assay: MTT toxicity to tumor cells, under light and in the dark. Type of assay: cell-based. The conditions noted are these: Homo sapiens, SW480; under light, 450-480 nm laser, 110 mW/cm^2, 900 s. How it is done: (§1) In this experimental example, the toxicity of the compound to tumor cells was tested by an MTT method including the following specific steps.
(§2) (1) Logarithmic cells were collected, the concentration of a cell suspension was adjusted, the cell suspension was added to a cell culture plate in a dose of 100 μL per well, and the cells were then added to a cell culture plate so that the density of the cells to be tested was adjusted to 1000-10000 wells (edge wells were filled with sterile PBS).
(§3) (2) The cells were incubated at 37° C. in the presence of 5% CO2 until the cells in a single layer covered the bottom of each well (96-well flat-bottom plate), and a drug in concentration gradients was added. Generally, the drug in 5 to 7 gradients was added in a dose of 100 μL per well, and 3 to 5 multi-wells were set.
(§4) (3) The cells were randomly divided into treated groups under light and treated groups in the dark, incubated at 37° C. in the presence of 5% CO2 for 16 h to 48 h, and observed with an inverted microscope.
(§5) (4) The cells were irradiated for 900 s with a laser having a wavelength of 450 nm to 480 nm (at an intensity of 110 mW/cm^2), and the final light dose was about 100 J/cm^2. After light irradiation, the cells were washed with PBS.
(§6) (5) An MTT solution (5 mg/ml, 0.5% MTT) was added in a dose of 20 μL per well to further incubate the cells for 4 h. If the drug could react with the MTT, centrifuging was carried out first, and then the culture solution was discarded and the cells were carefully washed twice or three times with PBS, and then the culture solution containing MTT was added.
(§7) (6) The culture was terminated and the culture solution in the wells was carefully removed.
(§8) (7) Dimethyl sulfoxide was added in a dose of 150 μL per well, and the plate was then shaken on a shaker at a low speed for 10 min to fully dissolve crystals. The absorbance at OD 490 nm of each well was measured with enzyme-linked immunoassay.
(§9) (8) Zero adjustment wells (medium, MTT, dimethyl sulfoxide) and control wells (cells, dissolving media of the same concentration, culture solution, MTT, dimethyl sulfoxide) were set at the same time.

Assay [4] concerns Hela cells. Described as above. Type of assay: cell-based. Conditions: Homo sapiens, under light, 450-480 nm laser, 110 mW/cm^2, 900 s. As to the method: as §1, §2, §3, §4, §5, §6, §7, §8, §9
In assay [5] the test system is B16 melanoma cell. Described as above. Format: cell-based. Conditions: Mus musculus, under light, 450-480 nm laser, 110 mW/cm^2, 900 s. How it is done: as §1, §2, §3, §4, §5, §6, §7, §8, §9

For `CC(=O)C(C)=O` [BJMU-204], the inhibition at 60000 µM in assay [1] (450-480 nm laser, 15 mW/cm^2, 200 s, read-out: Inhibition rate under light) came out at 96%; in assay [1] (in the dark, read-out: Inhibition rate in the dark) it was 10.3%. The “number of B cells in tumor tissues” value in assay [2] (3% (p<0.001) and 0.5% (p<0.01) intratumoral + light vs control) was “increases significantly”. Also, the “weight changes of tumor tissues” value in assay [2] (3% and 0.5% intratumoral + light, both p<0.001 vs control, better at high concentration) is “obvious growth inhibition effect”. In addition, the “size changes of tumor tissues” value in assay [2] (3% and 0.5% intratumoral + light, both p<0.001 vs control, more prominent at high concentration) was “controlled and decreased”. Moreover, the IC50 in assay [3] came to 600 ± 50 nM; in assay [4], 600 ± 20 nM; in assay [5] it was 500 ± 30 nM.
